Measurements published in patent US20240033234A1, “THERAPEUTIC COMPOUNDS, FORMULATIONS, AND USE THEREOF” (Tvardi Therapeutics, Inc., priority 2022, published 2024).
“And” between values parts separate entries of the source, which are not always exact repeats. Equal entries are not always repeated.

Test: Accelerated and long term stability study of TTI-101 (Batch A, Batch B): HPLC assay, purity, impurities and water content after storage at 5° C., 25° C./60% RH, 30° C./65% RH or 40° C./75% RH
Assay type: physicochemical
Set-up: key to Impurity RRT 1.05: NQ: ≥0.02% and <0.05%; —: no peak
Description: Exemplary HPLC conditions: diluent was 0.1% trifluoroacetic acid (TFA) in acetonitrile, Mobile Phase A was 0.05% TFA in water, and Mobile Phase B was 0.05% TFA in acetonitrile, column (Agilent, Eclipse XDB-C18, 3.0×100 mm, particle size 1.8 μm), flow (0.425 mL/min), and detector (280 nm diode array).
Batch A was prepared analogously using Method 3 as described in Example 1. Batch B was prepared according to Method 5 as described in Example 1.
Samples of TTI-101 were stored at 5° C., 25° C./60% RH, 30° C./65% RH, or 40° C./75% RH. TTI-101 was stored in an LDPE bag enclosed with a Nylon cable tie and then transferred to another LDPE bag and enclosed with a Nylon cable tie. The enclosure was put into an HDPE bottle and closed with a polyethylene-lined polypropylene cap. The samples were stored under the above-identified conditions.
The samples were analyzed using HPLC with the exemplary conditions identified above. Relative retention time (RRT) for Compound 5 was about 0.83, Compound 4 was about 1.05-1.06, Compound 6 was about 1.15-1.17, and compound of formula (IV) was about 0.99.
• NA not applicable • NQ ≥0.02% and <0.05% • Avg average • Cmpd compound • — no peak • M month • RRT relative retention time

[1] = Storage 5° C., 4.5 M (25° C./60% RH) + 1.5 M (5° C.), Avg
[2] = Storage 5° C., 4.5 M (25° C./60% RH) + 1.5 M (5° C.), Prep P1-P2
[3] = Storage 5° C., 4.5 M (25° C./60% RH) + 1.5 M (5° C.), Prep P1-P2, listed as Batch B
[4] = Storage 5° C., 9 M, Prep P1-P2, listed as Batch B
[5] = Storage 25° C./60% RH, 0 M, Avg
[6] = Storage 25° C./60% RH, 0 M, Prep P1-P5
[7] = Storage 25° C./60% RH, 0 M, Prep P1-P5, listed as Batch B
[8] = Storage 25° C./60% RH, 1 M, Avg
[9] = Storage 25° C./60% RH, 1 M, Prep P1-P2
[10] = Storage 25° C./60% RH, 3 M, Avg
[11] = Storage 25° C./60% RH, 3 M, Prep P1-P2
[12] = Storage 25° C./60% RH, 3 M, Prep P1-P2, listed as Batch B
[13] = Storage 25° C./60% RH, 6 M, Avg
[14] = Storage 25° C./60% RH, 6 M, Prep P1-P2

Water Content (Storage 5° C., 0 M, Avg): 0.1% | Water Content (Storage 5° C., 0 M, Prep P1-P2): 0.1% | Impurities Total (Storage 5° C., 0 M, Prep P1-P5): 0.1 area % | Impurity RRT 0.86 (Storage 5° C., 0 M, Prep P1-P5): NQ (≥0.02% and <0.05%) | Impurity RRT 0.99 (Storage 5° C., 0 M, Prep P1-P5): NQ (≥0.02% and <0.05%) | Purity (Storage 5° C., 0 M, Prep P1-P5): 99.8% | Impurity RRT 1.16 (Cmp 6) (Storage 5° C., 0 M, Prep P1-P5, listed as Batch B): 0.08 area % and 0.07 area % | Impurities Total [1]: 0.3 area % | Impurity RRT 0.80 [1]: NQ (≥0.02% and <0.05%) | Impurity RRT 0.84 [1]: NQ (≥0.02% and <0.05%) | Impurity RRT 0.87 [1]: NQ (≥0.02% and <0.05%) | Impurity RRT 0.99 [1]: 0.05 area % | Impurity RRT 1.02 [1]: NQ (≥0.02% and <0.05%) | Impurity RRT 1.05 [1]: NQ (≥0.02% and <0.05%) | Impurity RRT 1.06 (Cmpd 4) [1]: NQ (≥0.02% and <0.05%) | Impurity RRT 1.17 (Cmp 6) [1]: 0.26 area % | Impurity RRT 1.39 [1]: NQ (≥0.02% and <0.05%) | Purity [1]: 99.6% | Water Content [1]: <0.04% | Impurity RRT 0.84 [2]: NQ (≥0.02% and <0.05%) | Impurity RRT 0.87 [2]: NQ (≥0.02% and <0.05%) | Impurity RRT 1.02 [2]: NQ (≥0.02% and <0.05%) | Impurity RRT 1.06 (Cmpd 4) [2]: NQ (≥0.02% and <0.05%) | Impurity RRT 1.39 [2]: NQ (≥0.02% and <0.05%) | Water Content [2]: <0.04% | Impurities Total [3]: 0.2 area % and 0.3 area % | Impurity RRT 1.17 (Cmp 6) [3]: 0.25 area % and 0.27 area % | Purity [3]: 99.6% and 99.5% | Assay (Storage 5° C., 9 M, Avg): 99.1% | Impurities Total (Storage 5° C., 9 M, Avg): 0.3 area % | Impurity RRT 0.84 (Storage 5° C., 9 M, Avg): NQ (≥0.02% and <0.05%) | Impurity RRT 0.87 (Storage 5° C., 9 M, Avg): NQ (≥0.02% and <0.05%) | Impurity RRT 0.99 (Storage 5° C., 9 M, Avg): 0.11 area % | Impurity RRT 1.02 (Storage 5° C., 9 M, Avg): NQ (≥0.02% and <0.05%) | Impurity RRT 1.16 (Cmp 6) (Storage 5° C., 9 M, Avg): 0.18 area % | Impurity RRT 1.39 (Storage 5° C., 9 M, Avg): NQ (≥0.02% and <0.05%) | Impurity RRT 1.47 (Storage 5° C., 9 M, Avg): NQ (≥0.02% and <0.05%) | Purity (Storage 5° C., 9 M, Avg): 99.6% | Water Content (Storage 5° C., 9 M, Avg): 0.05% | Impurities Total (Storage 5° C., 9 M, Prep P1-P2): 0.3 area % | Impurity RRT 0.87 (Storage 5° C., 9 M, Prep P1-P2): NQ (≥0.02% and <0.05%) | Impurity RRT 0.99 (Storage 5° C., 9 M, Prep P1-P2): 0.11 area % | Impurity RRT 1.02 (Storage 5° C., 9 M, Prep P1-P2): NQ (≥0.02% and <0.05%) | Impurity RRT 1.39 (Storage 5° C., 9 M, Prep P1-P2): NQ (≥0.02% and <0.05%) | Purity (Storage 5° C., 9 M, Prep P1-P2): 99.6% | Assay [4]: 98.7% and 99.4% | Impurity RRT 1.16 (Cmp 6) [4]: 0.18 area % and 0.17 area % | Water Content [4]: 0.1% and 0.05% | Assay [5]: 99.4% | Impurities Total [5]: 0.1 area % | Impurity RRT 0.61 [5]: 0.05 area % | Impurity RRT 0.86 [5]: NQ (≥0.02% and <0.05%) | Impurity RRT 0.88 [5]: NQ (≥0.02% and <0.05%) | Impurity RRT 0.99 [5]: NQ (≥0.02% and <0.05%) | Impurity RRT 1.16 (Cmp 6) [5]: 0.07 area % | Purity [5]: 99.8% | Water Content [5]: 0.1% | Water Content (Storage 25° C./60% RH, 0 M, Prep P1-P2): 0.1% | Impurities Total [6]: 0.1 area % | Impurity RRT 0.86 [6]: NQ (≥0.02% and <0.05%) | Impurity RRT 0.99 [6]: NQ (≥0.02% and <0.05%) | Purity [6]: 99.8% | Impurity RRT 1.16 (Cmp 6) [7]: 0.08 area % and 0.07 area % | Impurities Total [8]: 0.5 area % | Impurity RRT 0.80 [8]: NQ (≥0.02% and <0.05%) | Impurity RRT 0.84 [8]: NQ (≥0.02% and <0.05%) | Impurity RRT 0.87 [8]: NQ (≥0.02% and <0.05%) | Impurity RRT 0.99 [8]: 0.10 area % | Impurity RRT 1.02 [8]: NQ (≥0.02% and <0.05%) | Impurity RRT 1.05 [8]: NQ (≥0.02% and <0.05%) | Impurity RRT 1.06 (Cmpd 4) [8]: NQ (≥0.02% and <0.05%) | Impurity RRT 1.17 (Cmp 6) [8]: 0.39 area % | Purity [8]: 99.4% | Water Content [8]: 0.1% | Impurities Total [9]: 0.5 area % | Impurity RRT 0.80 [9]: NQ (≥0.02% and <0.05%) | Impurity RRT 0.84 [9]: NQ (≥0.02% and <0.05%) | Impurity RRT 0.87 [9]: NQ (≥0.02% and <0.05%) | Impurity RRT 0.99 [9]: 0.10 area % | Impurity RRT 1.02 [9]: NQ (≥0.02% and <0.05%) | Impurity RRT 1.17 (Cmp 6) [9]: 0.39 area % | Purity [9]: 99.4% | Water Content [9]: 0.1% | Assay (Storage 25° C./60% RH, 1 M, Prep P1-P2, listed as Batch B): 99.0% and 99.2% | Assay [10]: 97.8% | Impurities Total [10]: 0.4 area % | Impurity RRT 0.48 [10]: NQ (≥0.02% and <0.05%) | Impurity RRT 0.80 [10]: NQ (≥0.02% and <0.05%) | Impurity RRT 0.84 [10]: NQ (≥0.02% and <0.05%) | Impurity RRT 0.87 [10]: NQ (≥0.02% and <0.05%) | Impurity RRT 0.99 [10]: 0.09 area % | Impurity RRT 1.02 [10]: NQ (≥0.02% and <0.05%) | Impurity RRT 1.05 [10]: — | Impurity RRT 1.06 (Cmpd 4) [10]: NQ (≥0.02% and <0.05%) | Impurity RRT 1.17 (Cmp 6) [10]: 0.33 area % | Purity [10]: 99.4% | Water Content [10]: 0.04% | Impurities Total [11]: 0.4 area % | Impurity RRT 0.80 [11]: NQ (≥0.02% and <0.05%) | Impurity RRT 0.84 [11]: NQ (≥0.02% and <0.05%) | Impurity RRT 0.87 [11]: NQ (≥0.02% and <0.05%) | Impurity RRT 0.99 [11]: 0.09 area % | Impurity RRT 1.02 [11]: NQ (≥0.02% and <0.05%) | Impurity RRT 1.05 [11]: — | Impurity RRT 1.17 (Cmp 6) [11]: 0.33 area % | Water Content [11]: 0.04% | Assay [12]: 96.8% and 98.8% | Purity [12]: 99.4% and 99.5% | Assay [13]: 98.7% | Impurities Total [13]: 0.3 area % | Impurity RRT 0.80 [13]: NQ (≥0.02% and <0.05%) | Impurity RRT 0.84 [13]: NQ (≥0.02% and <0.05%) | Impurity RRT 0.87 [13]: NQ (≥0.02% and <0.05%) | Impurity RRT 0.99 [13]: 0.05 area % | Impurity RRT 1.02 [13]: 0.05 area % | Impurity RRT 1.05 [13]: NQ (≥0.02% and <0.05%) | Impurity RRT 1.06 (Cmpd 4) [13]: NQ (≥0.02% and <0.05%) | Impurity RRT 1.17 (Cmp 6) [13]: 0.24 area % | Impurity RRT 1.39 [13]: NQ (≥0.02% and <0.05%) | Purity [13]: 99.5% | Water Content [13]: <0.04% | Impurities Total [14]: 0.3 area % | Impurity RRT 0.80 [14]: NQ (≥0.02% and <0.05%)
SMILES: COc1ccc(S(=O)(=O)Nc2cc(-c3c(O)ccc4ccccc34)c(O)c3ccccc23)cc1 [TTI-101]
Assay [7]: 99.0% and 100.5% and 99.3% and 99.5% and 98.8%
